Assay results published in ChEMBL document CHEMBL1201862, “PubChem BioAssay data set” (2004).
The source made the active and inactive calls.

Experiments:
[1] = biological target: NAD-dependent protein deacylase sirtuin-5, mitochondrial (Homo sapiens, UniProt Q9NXA8); assay: SIRT5 desuccinylase inhibitors, dose response, biochemical, fluorescence imaging, cherry-pick, set 5 (AID 720591);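 also: desuccinylation of succinyl peptide AMC substrate read as fluorescence after trypsin release; potency of inhibitors that lower fluorescence and may act on trypsin instead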
Kallikrein-7 = Kallikrein-7 (Homo sapiens, UniProt P49862); assay: Fluorescence Intensity-based biochemical primary high throughput dose response assay to identify activators of kallikrein-7 (K7) zymogen.
[2] = NIH-3T3 fibroblast cytotoxicity, dose response, cytotoxicity control, cell-based, fluorescence, Alamar Blue, secondary assay (AID 2327); format: functional;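 also: NIH-3T3 mouse fibroblasts cultured with fluconazole at 8 µg/mL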
[3] = C. albicans growth with fluconazole, confirmation, fluorescence, retest (AID 2467); format: functional, cell-based
[4] = biological target: T1, Serine/threonine-protein phosphatase (Candida dubliniensis (strain CD36 / CBS 7987 / NCPF 3949 / NRRLY-17841) (Yeast), UniProt B9W6M3); assay: calcineurin pathway inhibitors in yeast reporter, dose response, S. cerevisiae, CDRE-lacZ, luminescence, secondary (AID 2388); format: functional, cell-based;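 also: yeast reporter cells carrying a calcineurin-responsive lacZ construct stimulated with calcium chloride; luminescent beta-galactosidase reporter signal in whole cells rather than isolated phosphatase activity; potency for inhibition where a drop in reporter signal means calcineurin blockade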
T1 sequence (B9W6M3 whole entry): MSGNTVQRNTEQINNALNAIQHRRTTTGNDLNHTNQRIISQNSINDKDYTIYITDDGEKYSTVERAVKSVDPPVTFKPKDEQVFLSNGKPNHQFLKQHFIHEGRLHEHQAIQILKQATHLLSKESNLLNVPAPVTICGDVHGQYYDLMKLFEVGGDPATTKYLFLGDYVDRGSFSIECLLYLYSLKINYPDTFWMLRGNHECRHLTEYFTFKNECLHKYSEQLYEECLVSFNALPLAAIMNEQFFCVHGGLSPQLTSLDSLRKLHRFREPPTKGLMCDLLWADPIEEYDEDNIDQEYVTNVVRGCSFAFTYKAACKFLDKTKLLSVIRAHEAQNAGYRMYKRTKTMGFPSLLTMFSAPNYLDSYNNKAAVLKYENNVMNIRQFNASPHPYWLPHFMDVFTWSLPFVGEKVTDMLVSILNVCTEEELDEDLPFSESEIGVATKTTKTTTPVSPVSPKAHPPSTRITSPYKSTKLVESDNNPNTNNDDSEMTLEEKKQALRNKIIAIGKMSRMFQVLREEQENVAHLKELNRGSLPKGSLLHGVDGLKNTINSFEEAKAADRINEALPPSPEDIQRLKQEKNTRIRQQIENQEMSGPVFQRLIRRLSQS

[5] = biological target: T1, Serine/threonine-protein phosphatase; assay: Fluorescence Cell-Based Secondary Assay to Identify Inhibitors of Calcineurin. [Related pubchem assays (depositor defined):AID1979, AID2007]; format: functional
INS1 = assay: beta cell apoptosis inhibitors, cytokine rescue, dose response, luminescence, retest (AID 449756); format: functional, cell-based; conditions: Rattus norvegicus;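 also: cell death triggered by IL-1 beta plus TNF-alpha plus IFN-gamma mixture; protective hits raise ATP signal compared with cytokine alone wells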
[6] = biological target: ATP-dependent molecular chaperone HSP82 (Candida albicans (strain WO-1) (Yeast), UniProt C4YTQ8); assay: loss of DOC-induced GRE-beta-galactosidase reporter signal, dose response, Hsp90 inhibitor project, S. cerevisiae, luminescence (AID 2400); format: functional, cell-based;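 also: beta-galactosidase luminescence from glucocorticoid response element reporter as proxy for Hsp90 function; inhibitor potency where signal loss means Hsp90 inhibition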
[7] = Shn3 3'UTR reporter inhibitors, dose response, cell-based, Clone20 osteoblasts, firefly luciferase, cherry-picked (AID 624132); format: functional;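 also: firefly luciferase luminescence from reporter carrying the Shn3 3'UTR in osteoblasts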
[8] = HepG2 cell cytotoxicity, dose response, cytotoxicity control for Shn3 inhibitor project, CellTiter-Glo, cherry-picked (AID 624134); format: functional, cell-based
[9] = control 3'UTR Renilla luciferase suppression, dose response, counter-screen for Shn3 inhibitor project, cell-based, Clone20-Shn3RL, cherry-picked (AID 624133); format: functional
Protein skinhead-1 = biological target: T2, Protein skinhead-1 (Caenorhabditis elegans, UniProt P34707); format: functional
T2 sequence (P34707 whole entry): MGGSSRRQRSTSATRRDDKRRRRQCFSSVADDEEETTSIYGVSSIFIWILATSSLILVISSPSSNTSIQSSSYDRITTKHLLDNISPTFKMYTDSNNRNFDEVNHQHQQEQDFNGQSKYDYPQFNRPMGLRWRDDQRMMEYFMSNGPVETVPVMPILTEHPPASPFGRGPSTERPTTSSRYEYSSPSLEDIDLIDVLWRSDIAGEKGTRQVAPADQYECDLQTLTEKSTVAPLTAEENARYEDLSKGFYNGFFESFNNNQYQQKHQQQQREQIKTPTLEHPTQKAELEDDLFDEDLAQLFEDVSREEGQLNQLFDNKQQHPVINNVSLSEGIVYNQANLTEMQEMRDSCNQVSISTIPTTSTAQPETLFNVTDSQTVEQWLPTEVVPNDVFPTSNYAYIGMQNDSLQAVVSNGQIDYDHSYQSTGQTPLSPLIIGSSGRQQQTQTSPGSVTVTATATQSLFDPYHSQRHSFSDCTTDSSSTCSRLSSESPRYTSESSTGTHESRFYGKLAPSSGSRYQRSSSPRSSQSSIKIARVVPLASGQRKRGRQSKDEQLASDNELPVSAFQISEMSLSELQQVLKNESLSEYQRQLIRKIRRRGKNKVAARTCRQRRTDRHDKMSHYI

[10] = reduction of Shn3 3'UTR firefly luciferase signal, dose response, Schnurri-3 inhibitor project, cell-based, Clone20 osteoblasts, cherry-pick, set 2 (AID 720490); format: functional;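 also: actives lower the luminescence signal as inhibitors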
[11] = inhibitors of control Renilla luciferase reporter, dose response, counter-screen for Shn3 3'UTR targeting project, Clone20-Shn3RL cells, dual-Glo, cherry-pick, set 2 (AID 720724); format: functional, cell-based; conditions: Dual-Go Shn3RL
[12] = biological target: Intestinal-type alkaline phosphatase (Mus musculus, UniProt P24822); assay: PubChem AID 488785; format: functional
[13] = biological target: T3, Alkaline phosphatase, tissue-nonspecific isozyme (Homo sapiens, UniProt P05186); assay: TNAP enzyme inhibition by screening hits, dose response, selectivity assay for mouse IAP inhibitor project, biochemical, human TNAP, uHTS hits (AID 488906); format: functional
T3 sequence (P05186 whole entry): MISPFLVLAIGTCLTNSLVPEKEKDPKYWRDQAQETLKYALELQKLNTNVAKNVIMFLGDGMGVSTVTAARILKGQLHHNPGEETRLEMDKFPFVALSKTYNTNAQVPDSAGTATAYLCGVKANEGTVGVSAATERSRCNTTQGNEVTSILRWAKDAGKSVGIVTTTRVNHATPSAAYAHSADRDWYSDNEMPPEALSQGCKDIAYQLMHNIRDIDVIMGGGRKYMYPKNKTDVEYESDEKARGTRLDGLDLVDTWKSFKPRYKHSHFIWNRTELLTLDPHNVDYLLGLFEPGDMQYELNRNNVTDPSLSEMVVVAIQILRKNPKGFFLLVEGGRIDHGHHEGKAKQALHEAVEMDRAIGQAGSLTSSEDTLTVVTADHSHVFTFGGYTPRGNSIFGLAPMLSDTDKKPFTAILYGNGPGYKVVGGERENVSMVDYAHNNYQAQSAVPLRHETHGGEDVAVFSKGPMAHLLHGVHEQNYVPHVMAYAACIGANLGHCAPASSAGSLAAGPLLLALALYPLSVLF

[14] = biological target: Intestinal-type alkaline phosphatase (Homo sapiens, UniProt P09923); assay: inhibition of human intestinal alkaline phosphatase – biochemical, dose response (AID 488876); format: functional
[15] = biological target: T4, Methionyl-tRNA synthetase, putative (Trypanosoma brucei brucei, UniProt Q38C91); format: functional, Trypanosoma brucei brucei strain 927/4 GUTat10.1
T4 sequence (Q38C91 whole entry): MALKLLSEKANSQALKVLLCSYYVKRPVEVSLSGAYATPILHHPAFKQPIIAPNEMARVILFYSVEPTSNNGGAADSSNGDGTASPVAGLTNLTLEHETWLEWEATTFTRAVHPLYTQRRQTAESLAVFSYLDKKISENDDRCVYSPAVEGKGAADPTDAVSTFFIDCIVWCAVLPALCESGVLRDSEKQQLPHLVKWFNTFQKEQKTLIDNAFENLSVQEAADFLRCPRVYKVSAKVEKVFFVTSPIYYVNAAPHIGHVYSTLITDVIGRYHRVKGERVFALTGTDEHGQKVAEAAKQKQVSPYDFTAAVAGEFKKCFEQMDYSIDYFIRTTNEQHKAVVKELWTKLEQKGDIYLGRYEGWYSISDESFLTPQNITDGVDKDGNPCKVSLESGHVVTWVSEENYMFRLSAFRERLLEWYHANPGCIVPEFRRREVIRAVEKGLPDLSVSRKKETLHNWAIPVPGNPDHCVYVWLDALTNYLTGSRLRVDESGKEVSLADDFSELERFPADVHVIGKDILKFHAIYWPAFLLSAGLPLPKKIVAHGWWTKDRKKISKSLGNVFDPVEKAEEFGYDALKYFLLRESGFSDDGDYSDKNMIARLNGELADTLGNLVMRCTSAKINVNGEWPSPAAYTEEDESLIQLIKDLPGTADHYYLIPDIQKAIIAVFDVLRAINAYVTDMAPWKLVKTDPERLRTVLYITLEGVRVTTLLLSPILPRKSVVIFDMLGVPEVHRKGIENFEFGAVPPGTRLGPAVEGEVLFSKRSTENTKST

[16] = Counterscreen for inhibitors of Trypanosoma brucei methionyl tRNA synthetase (MetRS): Luminescence-based cell-based high throughput dose response assay to identify compounds that are cytotoxic to Jurkat human T lymphocyte cells.; format: functional
[17] = biological target: T4, Methionyl-tRNA synthetase, putative; format: functional, Trypanosoma brucei brucei strain 927/4 GUTat10.1; remark: listed apart in the source
[18] = ADAM10 inhibitors, peptide cleavage, dose response, biochemical, QFRET (AID 743254);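 also: ADAM10 enzyme with the DM2 quenched FRET peptide as substrate; EDANS fluorescence gain as the protease cuts the substrate; inhibitor potency against ADAM10 proteolytic activity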
[19] = biological target: Disintegrin and metalloproteinase domain-containing protein 17 (Homo sapiens, UniProt P78536); assay: ADAM17 protease inhibitors, dose response, counter-screen for ADAM10 exosite inhibitor project, biochemical, quenched FRET substrate (AID 743253)
[20] = TRPM1 promoter luciferase reporter signal decrease, dose response, MITF inhibitor project, cell-based, SK-MEL-5, dry powder, set 9 (AID 651588); format: functional
[21] = A375 melanoma cell viability loss, dose response, counter-screen for MITF inhibitor project, CellTiter-Glo luminescence, dry powder, set 4 (AID 624364); format: functional, cell-based; conditions: A-375;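 also: A375 melanoma cells are MITF independent so this is a counter screen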
[22] = A375 melanoma cell cytotoxicity, dose response, counter-screen for MITF inhibitor project, CellTiter-Glo luminescence, dry powder, set 7 (AID 624490); format: functional, cell-based; conditions: A-375
[23] = MITF Orthogonal Assay: MALME3 CTG Assay Measured in Cell-Based System Using Plate Reader - 2084-04_Inhibitor_Dose_DryPowder_Activity_Set6.; format: functional; conditions: MALME-3
[24] = SK-MEL-5 parental cell viability reduction, dose response, orthogonal assay for MITF inhibitor project, CellTiter-Glo luminescence, dry powder, set 8 (AID 651586); format: functional, cell-based
[25] = MALME3 melanoma cell viability reduction, dose response, orthogonal assay for MITF inhibitor project, CellTiter-Glo luminescence, dry powder, set 5 (AID 651584); format: functional, cell-based; conditions: MALME-3
[26] = SK-MEL-5 parental line viability, dose response, MITF inhibitor project, cell-based, CellTiter-Glo, dry powder, set 6 (AID 624429); format: functional
[27] = MITF Orthogonal Assay: SK-MEL-5 CTG Assay Measured in Cell-Based System Using Plate Reader - 2084-02_Inhibitor_Dose_DryPowder_Activity_Set5.; format: functional
[28] = A375 melanoma cell cytotoxicity, dose response, counter-screen for MITF inhibitor project, CellTiter-Glo luminescence, dry powder, set 6 (AID 624488); format: functional, cell-based; conditions: A-375
[29] = A375 melanoma cell viability loss, dose response, counter-screen for MITF modulator project, CellTiter-Glo luminescence, dry powder, set 9 (AID 651591); format: functional, cell-based; conditions: A-375
[30] = MITF Measured in Cell-Based System Using Plate Reader - 2084-01_Inhibitor_Dose_DryPowder_Activity_Set6.; format: functional
[31] = A375 melanoma cell cytotoxicity, dose response, counter-screen for MITF inhibitor project, CellTiter-Glo luminescence, dry powder, set 2 (AID 624489); format: functional, cell-based; conditions: A-375;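 also: actives are compounds lowering A375 viability meaning general cytotoxicity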
[32] = MITF Measured in Cell-Based System Using Plate Reader - 2084-01_Inhibitor_Dose_DryPowder_Activity_Set7.; format: functional
[33] = HeLa cell cytotoxicity, dose response, cytotoxicity control, 24 h, plate reader, dry powder (AID 686928); format: functional, cell-based

Chain of Intestinal-type alkaline phosphatase (Homo sapiens, UniProt P09923) (P09923 whole entry): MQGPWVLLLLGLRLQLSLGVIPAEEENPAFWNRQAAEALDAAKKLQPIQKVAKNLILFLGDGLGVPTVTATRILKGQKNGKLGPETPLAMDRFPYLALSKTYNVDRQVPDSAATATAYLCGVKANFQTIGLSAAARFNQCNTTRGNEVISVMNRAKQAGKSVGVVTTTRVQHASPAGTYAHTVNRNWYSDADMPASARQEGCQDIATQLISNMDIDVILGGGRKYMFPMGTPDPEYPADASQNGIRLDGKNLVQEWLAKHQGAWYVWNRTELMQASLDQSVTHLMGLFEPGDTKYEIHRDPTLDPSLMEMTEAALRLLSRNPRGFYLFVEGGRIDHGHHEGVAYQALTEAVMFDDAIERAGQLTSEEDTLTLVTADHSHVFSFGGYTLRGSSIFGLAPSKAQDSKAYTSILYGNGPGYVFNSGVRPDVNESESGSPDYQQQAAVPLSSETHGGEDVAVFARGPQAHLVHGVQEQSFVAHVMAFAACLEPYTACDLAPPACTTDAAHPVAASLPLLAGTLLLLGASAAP
Chain of Intestinal-type alkaline phosphatase (Mus musculus, UniProt P24822) (P24822 whole entry): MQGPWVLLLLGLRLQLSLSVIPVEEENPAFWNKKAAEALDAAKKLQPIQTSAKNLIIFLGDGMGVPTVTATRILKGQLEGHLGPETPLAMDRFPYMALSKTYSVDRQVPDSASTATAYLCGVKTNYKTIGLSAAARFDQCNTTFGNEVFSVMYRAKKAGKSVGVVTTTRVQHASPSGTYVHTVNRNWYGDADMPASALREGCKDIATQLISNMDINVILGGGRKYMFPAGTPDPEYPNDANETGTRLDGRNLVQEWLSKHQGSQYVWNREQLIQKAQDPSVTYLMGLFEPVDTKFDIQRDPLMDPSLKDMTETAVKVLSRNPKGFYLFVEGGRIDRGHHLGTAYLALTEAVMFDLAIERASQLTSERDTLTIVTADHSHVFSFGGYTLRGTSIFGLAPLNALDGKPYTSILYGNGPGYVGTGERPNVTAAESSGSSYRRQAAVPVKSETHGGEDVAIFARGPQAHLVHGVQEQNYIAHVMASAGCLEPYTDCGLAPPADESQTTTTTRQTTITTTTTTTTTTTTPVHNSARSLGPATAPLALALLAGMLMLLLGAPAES
Chain of ATP-dependent molecular chaperone HSP82 (C4YTQ8 whole entry): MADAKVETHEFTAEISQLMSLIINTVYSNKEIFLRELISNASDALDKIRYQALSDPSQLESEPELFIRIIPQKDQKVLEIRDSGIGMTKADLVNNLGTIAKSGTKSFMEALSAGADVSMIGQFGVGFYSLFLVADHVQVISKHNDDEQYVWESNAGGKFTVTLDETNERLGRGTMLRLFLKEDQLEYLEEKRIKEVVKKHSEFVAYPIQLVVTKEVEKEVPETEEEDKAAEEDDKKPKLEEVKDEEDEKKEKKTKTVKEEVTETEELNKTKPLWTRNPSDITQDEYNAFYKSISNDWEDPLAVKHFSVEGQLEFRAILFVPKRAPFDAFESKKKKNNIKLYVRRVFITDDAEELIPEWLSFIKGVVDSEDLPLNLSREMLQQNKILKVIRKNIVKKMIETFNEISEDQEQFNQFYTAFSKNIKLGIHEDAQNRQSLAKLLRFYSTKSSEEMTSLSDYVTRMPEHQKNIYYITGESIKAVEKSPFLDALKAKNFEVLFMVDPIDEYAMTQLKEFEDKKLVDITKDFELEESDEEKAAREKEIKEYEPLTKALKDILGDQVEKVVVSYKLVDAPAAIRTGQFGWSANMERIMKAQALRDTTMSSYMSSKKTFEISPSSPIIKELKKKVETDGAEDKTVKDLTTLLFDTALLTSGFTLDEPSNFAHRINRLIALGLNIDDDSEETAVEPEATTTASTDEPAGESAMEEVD
Chain of Disintegrin and metalloproteinase domain-containing protein 17 (P78536 whole entry, the tested form may be a part): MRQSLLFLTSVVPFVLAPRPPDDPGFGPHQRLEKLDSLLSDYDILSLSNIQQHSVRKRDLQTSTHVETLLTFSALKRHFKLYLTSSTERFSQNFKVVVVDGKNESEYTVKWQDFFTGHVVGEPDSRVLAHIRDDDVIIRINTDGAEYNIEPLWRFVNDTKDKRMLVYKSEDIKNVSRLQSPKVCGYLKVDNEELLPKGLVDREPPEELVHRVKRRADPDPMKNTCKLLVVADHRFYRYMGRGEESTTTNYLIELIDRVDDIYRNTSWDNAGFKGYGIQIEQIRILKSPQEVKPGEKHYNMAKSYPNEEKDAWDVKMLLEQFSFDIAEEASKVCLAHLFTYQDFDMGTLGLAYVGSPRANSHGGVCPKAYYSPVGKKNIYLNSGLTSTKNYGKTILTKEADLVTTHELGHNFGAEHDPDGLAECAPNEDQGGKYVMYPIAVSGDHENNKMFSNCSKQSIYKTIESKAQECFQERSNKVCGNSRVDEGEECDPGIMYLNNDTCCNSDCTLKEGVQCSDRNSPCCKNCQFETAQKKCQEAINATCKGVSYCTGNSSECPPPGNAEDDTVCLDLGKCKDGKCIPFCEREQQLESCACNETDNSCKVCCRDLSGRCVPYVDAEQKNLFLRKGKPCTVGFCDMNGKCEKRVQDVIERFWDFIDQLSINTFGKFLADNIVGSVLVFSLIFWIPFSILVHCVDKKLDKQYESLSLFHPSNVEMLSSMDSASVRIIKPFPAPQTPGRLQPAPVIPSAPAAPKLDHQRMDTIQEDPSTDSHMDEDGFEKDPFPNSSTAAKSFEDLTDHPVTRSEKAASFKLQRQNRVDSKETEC
Chain of NAD-dependent protein deacylase sirtuin-5, mitochondrial (Q9NXA8 whole entry): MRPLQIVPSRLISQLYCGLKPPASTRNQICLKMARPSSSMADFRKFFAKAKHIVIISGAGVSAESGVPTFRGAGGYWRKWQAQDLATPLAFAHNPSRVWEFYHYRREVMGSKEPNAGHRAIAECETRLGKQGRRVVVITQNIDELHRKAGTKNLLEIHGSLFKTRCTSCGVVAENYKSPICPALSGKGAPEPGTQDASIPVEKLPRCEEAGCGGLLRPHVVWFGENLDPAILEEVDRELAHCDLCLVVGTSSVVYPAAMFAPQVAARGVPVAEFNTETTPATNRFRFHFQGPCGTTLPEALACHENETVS
Chain of Kallikrein-7 (P49862 whole entry): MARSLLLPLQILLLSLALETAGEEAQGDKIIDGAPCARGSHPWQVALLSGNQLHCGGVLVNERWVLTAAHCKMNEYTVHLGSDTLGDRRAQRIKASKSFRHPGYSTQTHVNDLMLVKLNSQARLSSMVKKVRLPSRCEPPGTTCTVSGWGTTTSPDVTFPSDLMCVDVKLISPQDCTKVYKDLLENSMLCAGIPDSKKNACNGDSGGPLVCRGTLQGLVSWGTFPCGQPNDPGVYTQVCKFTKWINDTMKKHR

## CCOC(=O)c1cnc(-n2nc(C)cc2C)nc1Oc1ccccc1F
[1]
  AC50: > 30 µM (inactive)

## CCN1CCN(C(=O)COc2ccc3c(c2)C(=O)CC2(CCN(C(C)=O)CC2)O3)CC1
Kallikrein-7
  EC50: > 2.58 µM (active)

## Cc1nc2ccccc2cc1OCc1ccc(F)cc1
[2]
  EC50: > 160 µM (inactive)
[3]
  EC50: 1.58 µM (active)
[4]
  EC50: > 180 µM (inactive)
[5]
  EC50: > 285 µM (inactive)
INS1
  AC50: 4.84 µM (active)
[6]
  EC50: 21.1 µM (active)
[7]
  AC50: 1.7 µM (active)
[8]
  AC50: 41.7 µM (active)
[9]
  AC50: 22.1 µM (active)
Protein skinhead-1
  IC50: 12.2 µM (active)
[10]
  AC50: 2.05 µM (active)
[11]
  AC50: 4.87 µM (active)

## CCc1cc(Cn2nc(-c3ccccc3)cc2C(=O)NCc2cccc(Br)c2)on1
[12]
  IC50: 12.9 µM (active)
[13]
  IC50: 54.9 µM (active)
[14]
  IC50: > 100 µM (inactive)
[15]
  IC50: 2.93 µM (active)
[16]
  IC50: 83.3 µM (inactive)
[17]
  IC50: 1.66 µM (active)
[18]
  IC50: > 69.5 µM (inactive)
[19]
  IC50: > 69.5 µM (inactive)

## CCN1CCN(C2=C(NC(=O)c3ccccc3)C(=O)c3ccccc3C2=O)CC1
[20]
  AC50: 1.72 µM (active)
[21]
  AC50: 26.7 µM (active)
[22]
  AC50: 10.1 µM (active)
[23]
  AC50: 5.64 µM (active)
[24]
  AC50: 9.73 µM (active)
[25]
  AC50: 5.64 µM (active)
[26]
  AC50: 9.53 µM (active)
[27]
  AC50: 6.95 µM (active)
[28]
  AC50: 15.8 µM (active)
[29]
  AC50: 27.3 µM (active)
[30]
  AC50: 0.523 µM (active)
[31]
  AC50: 11.2 µM (active)
[32]
  AC50: 0.729 µM (active)

## O=c1ncn(-c2cccc(Cl)c2)c2cc(Cl)ccc12
[33]
  AC50: > 160 µM (inactive)

## O=c1c2ccccc2n(CC(O)CN2CCCCC2)c2ccccc12 (configuration not stated)
cells
  AC50: 3.43 µM (active)
